Test results taken from patent US7098306B2, “Method and compositions for treating hepatocellular cancer” (The Regents of the University of California, priority 1997, dated 2006).

Assays:
[1] = system: AdVhAFP/DC immunized murine splenocytes; assay: IFNg ELISPOT restimulation of AdVhAFP/DC immunized murine splenocytes with HPLC fractions eluted from HepG2 or Hep3B; format: cell-based; settings: HPLC fractions from Hep3B elution
Method: To elute peptides, HepG2 and Hep3B cells were washed three times with PBS before being incubated with 5 ml of citrate-phosphate buffer at pH 3.2 for 1 minute. The suspension was centrifuged (800×g for 5 minutes) and a total of 500 ml of cell-free supernatant was collected for each cell line. The materials were lyophilized to dryness and stored at −20° C.
Lyophilized materials were redissolved in 30 ml of water/acetonitrile/triflouroacetic acid (W/A/TFA, 95/5/0.1 all by vol.). This solution was pumped onto an analytical reverse phase HPLC column (Keystone Scientific C18 Betasil, 250 mm×2 mm, […] particle size, 100 Å pore size) equilibrated in W/A/TFA, at a flow rate of 0.2 ml/min. The column was eluted using an increasing linear gradient of 0.1% TFA in acetonitrile (time/%acetonitrile=0/5, 5/5, 55/100, 60/100). Column eluate absorbance was monitored at 215 and 280 nm and 1 minute fractions were collected. The retention times of the synthetic peptides with amino acid sequences corresponding to the immunostimulatory peptides were obtained using the same separation gradient on a separate column.
To confirm the presence of dominant peptides in these fractions immunologically, […] of each HPLC fraction from either HepG2 or Hep3B cells was used to restimulate AdVhAFP/DC immunized murine splenocytes in an ELISPOT assay. 200–250 spots/10^6 cells were observed from fractions containing dominant peptides, where 100–130 spots/10^6 cells were observed from the other fractions, and a maximum of 50 spots/10^6 cells were observed from Hep3B fractions. This further supports the mass spectrometry identification of the dominant peptides.

[2] = system: AFP positive/A2.1+ hepatocellular carcinoma; assay: immunization of hepatocellular carcinoma patients with the four peptides in Montanide ISA-51, peripheral T cell responses by ELISPOT and tetramer; format: in vivo, human; settings: for in vivo T cell responses: patient AFP-A1, 100 μg each peptide, after the second and third immunization; for T cell responses by tetramer and ELISPOT: patient AFP-A2, following two immunizations
Method: The method and compositions of the present invention were used to treat several patients with AFP positive/A2.1+ hepatocellular carcinoma. Each of the patients were immunized with the four peptides hAFP137-145, residues 137–145 of SEQ ID NO:2; hAFP158-166, residues 158–166 of SEQ ID NO:2; hAFP325-334, residues 325–334 of SEQ ID NO:2; and hAFP542-550, residues 542–550 of SEQ ID NO:2, according to the this method. The peptides were emulsified in 0.5 ml of Montanide™ ISA-51 and combined for a total of 2 ml. The emulsified peptides were divided into four equal doses and each dose was administered in a separate site. Peripheral T cell responses are measured by ELISPOT and tetramer assays.
(§1) They were administered three immunizations of 100 μg each of the four peptides in Montanide™ ISA at two week intervals. Parallel in vitro PBMC cultures were also established from the first patient's blood before immunization and repetitively pulsed with each peptide. […] The presence of AFP542-specific T cells could not be assessed by tetramer as an AFP542 peptide tetramer could not be folded by the facility where these reagents are prepared.
The second patient, designated AFP-A2 was a person with a history of ethanol-induced liver cirrhosis, who was negative for both Hepatitis B and C. […] Their AFP level at presentation was 10,400 ng/ml. […] Seven months after presentation, they were then begun on a combination of the four peptides hAFP137-145, residues 137–145 of SEQ ID NO:2; hAFP158-166, residues 158–166 of SEQ ID NO:2; hAFP325-334, residues 325–334 of SEQ ID NO:2; and hAFP542-550, residues 542–550 of SEQ ID NO:2 using the protocol according to the present invention. They received two immunizations two weeks apart.

PBMC cultures = assay: parallel in vitro PBMC cultures of patient AFP-A1 repetitively pulsed with each peptide; format: cell-based, human; settings: patient AFP-A1, day 28 cultures
Method: as §1

Sequence	Immunologically Reactive Fractions (IFNg ELISPOT) Hep3B [1]	in vivo T cell responses [2]	T cell responses by tetramer and ELISPOT [2]	in vitro recognition by tetramer (PBMC cultures)
GLSPNLNRFL (listed as Homo sapiens) [hAFP325-334, dominant HLA-A*0201 peptide derived from human alpha fetoprotein]	0	trend towards recognition	T cell responses were detected	clear in vitro recognition
PLFQVPEPV (listed as Homo sapiens) [hAFP137-145, dominant HLA-A*0201 peptide derived from human alpha fetoprotein]	0	clear recognition	T cell responses were detected	clear in vitro recognition
FMNKFIYEI (listed as Homo sapiens) [hAFP158-166, dominant HLA-A*0201 peptide derived from human alpha fetoprotein]	0	clear recognition	T cell responses were detected	–
GVALQTMKQ (listed as Homo sapiens) [hAFP542-550, dominant HLA-A*0201 peptide derived from human alpha fetoprotein]	0	clear recognition	T cell responses were detected	–
